These results are taken from patent publication US11857519B2, “Compounds and methods for the targeted degradation of enhancer of zeste homolog 2 polypeptide” (Arvinas Operations, Inc., priority 2016, dated 2024).

The target of the test is T1, EZH2 (Homo sapiens, UniProt Q15910).
T1 construct: Protocol of the Cellular Assay of Target Protein Degradation (VCaP Cells, ELISA); endogenous in cells; host or cells: VCaP cells
T1 sequence (Q15910 whole entry): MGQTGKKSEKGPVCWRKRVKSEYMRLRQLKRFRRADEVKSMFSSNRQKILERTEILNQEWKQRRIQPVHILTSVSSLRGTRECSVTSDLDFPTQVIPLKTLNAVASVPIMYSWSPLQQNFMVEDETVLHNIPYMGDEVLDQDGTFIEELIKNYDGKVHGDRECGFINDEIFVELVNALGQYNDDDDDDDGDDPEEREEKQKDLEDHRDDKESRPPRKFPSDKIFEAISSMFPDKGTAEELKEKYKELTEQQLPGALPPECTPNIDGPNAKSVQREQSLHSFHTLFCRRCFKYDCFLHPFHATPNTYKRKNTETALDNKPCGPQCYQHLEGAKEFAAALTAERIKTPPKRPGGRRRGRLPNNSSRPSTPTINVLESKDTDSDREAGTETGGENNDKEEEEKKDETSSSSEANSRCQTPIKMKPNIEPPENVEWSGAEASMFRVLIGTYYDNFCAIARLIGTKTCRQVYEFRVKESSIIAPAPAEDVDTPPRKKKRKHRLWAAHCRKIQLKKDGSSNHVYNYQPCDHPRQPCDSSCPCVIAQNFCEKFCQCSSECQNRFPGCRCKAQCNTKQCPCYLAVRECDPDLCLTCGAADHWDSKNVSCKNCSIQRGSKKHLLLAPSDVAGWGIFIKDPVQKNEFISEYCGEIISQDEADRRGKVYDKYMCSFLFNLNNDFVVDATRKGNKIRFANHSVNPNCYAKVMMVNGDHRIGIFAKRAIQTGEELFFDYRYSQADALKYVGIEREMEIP
T1 sequence (O75530 whole entry partner): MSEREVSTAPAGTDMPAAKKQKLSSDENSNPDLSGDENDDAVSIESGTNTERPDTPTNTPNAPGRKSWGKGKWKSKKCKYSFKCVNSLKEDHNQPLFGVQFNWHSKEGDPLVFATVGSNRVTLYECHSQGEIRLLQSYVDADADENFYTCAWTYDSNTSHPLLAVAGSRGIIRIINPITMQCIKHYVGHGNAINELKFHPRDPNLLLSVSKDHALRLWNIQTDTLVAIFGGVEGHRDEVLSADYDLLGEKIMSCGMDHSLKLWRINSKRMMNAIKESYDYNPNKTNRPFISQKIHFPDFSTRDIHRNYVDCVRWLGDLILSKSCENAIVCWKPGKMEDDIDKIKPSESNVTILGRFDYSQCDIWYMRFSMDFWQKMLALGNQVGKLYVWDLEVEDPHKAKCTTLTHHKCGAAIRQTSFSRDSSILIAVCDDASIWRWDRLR
T1 sequence (Q15022 whole entry partner): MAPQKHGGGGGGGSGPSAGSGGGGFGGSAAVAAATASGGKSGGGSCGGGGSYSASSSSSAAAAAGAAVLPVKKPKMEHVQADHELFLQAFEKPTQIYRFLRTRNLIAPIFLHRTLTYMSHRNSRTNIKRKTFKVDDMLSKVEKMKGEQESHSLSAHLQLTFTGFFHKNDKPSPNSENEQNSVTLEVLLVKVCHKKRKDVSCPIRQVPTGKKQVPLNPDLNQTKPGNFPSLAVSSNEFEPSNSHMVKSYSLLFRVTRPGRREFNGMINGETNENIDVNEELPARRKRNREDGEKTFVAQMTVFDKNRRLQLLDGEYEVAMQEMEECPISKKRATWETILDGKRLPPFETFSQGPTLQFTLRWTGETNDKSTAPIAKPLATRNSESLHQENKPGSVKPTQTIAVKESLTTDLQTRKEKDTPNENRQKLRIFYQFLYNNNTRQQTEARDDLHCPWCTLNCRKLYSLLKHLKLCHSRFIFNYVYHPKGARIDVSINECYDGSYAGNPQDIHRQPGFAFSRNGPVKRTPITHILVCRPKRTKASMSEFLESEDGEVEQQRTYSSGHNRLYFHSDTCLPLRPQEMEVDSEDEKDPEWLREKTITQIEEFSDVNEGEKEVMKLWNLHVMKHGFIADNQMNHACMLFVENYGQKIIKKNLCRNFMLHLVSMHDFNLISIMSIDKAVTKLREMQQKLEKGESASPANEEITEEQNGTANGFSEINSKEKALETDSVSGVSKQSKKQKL
Description: Cellular assay of target protein degradation (VCaP cells, ELISA). Format: cell-based. The note with it: 4 hours, protein degradation range at indicated concentration (relative to DMSO control). In a few lines: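 VCaP cells grown ≥3 days in RPMI with 5% CSS, then dosed with compounds in 0.1% DMSO for 4 h. Lysates analysed by sandwich ELISA for EZH2 with TMB readout at 450 nm, 562 nm used for background subtraction.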
On to `CCN(c1cc(-c2ccc(OCCOCCOCCOCC(=O)N[C@H](C(=O)N3C[C@H](O)C[C@H]3C(=O)NCc3ccc(-c4scnc4C)cc3)C(C)(C)C)cc2)cc(C(=O)NCc2c(C)cc(C)[nH]c2=O)c1C)C1CCOCC1` [Compound 13, (2S,4R)-1-[(2S)-2-{1-[4-(3-{[(4,6-dimethyl-2-oxo-1,2-dihydropyridin-3-yl)methyl]carbamoyl}-5-[ethyl(oxan-4-yl)amino]-4-methylphenyl)phenyl]-1,4,7,10-tetraoxadodecan-12-amido}-3,3-dimethylbutanoyl]-4-hydroxy-N-{[4-(4-methyl-1,3-thiazol-5-yl)phenyl]methyl}pyrrolidine-2-carboxamide], for which the “percent target protein degradation class” value is “B (B = degradation between 30% and 60%)”.
As for `CCN(c1cc(-c2ccc(OCCCN3CCN(c4ccc5c(c4)C(=O)N(C4CCC(=O)NC4=O)C5=O)CC3)cc2)cc(C(=O)NCc2c(C)cc(C)[nH]c2=O)c1C)C1CCOCC1` (stereo not shown) [Compound 61, N-[(4,6-dimethyl-2-oxo-1,2-dihydropyridin-3-yl)methyl]-5-[4-(3-{4-[2-(2,6-dioxopiperidin-3-yl)-1,3-dioxo-2,3-dihydro-1H-isoindol-5-yl]piperazin-1-yl}propoxy)phenyl]-3-[ethyl(oxan-4-yl)amino]-2-methylbenzamide], the entry is “B (B = degradation between 30% and 60%)”; as for `CCN(c1cc(-c2ccc(OCCCCCOCC(=O)N[C@H](C(=O)N3C[C@H](O)C[C@H]3C(=O)N[C@@H](C)c3ccc(-c4scnc4C)cc3)C(C)(C)C)cc2)cc(C(=O)NCc2c(C)cc(C)[nH]c2=O)c1C)C1CCOCC1` [Compound 94, (2S,4R)-1-((S)-2-(2-((5-((3′-(((4,6-dimethyl-2-oxo-1,2-dihydropyridin-3-yl)methyl)carbamoyl)-5′-(ethyl(tetrahydro-2H-pyran-4-yl)amino)-4′-methyl-[1,1′-biphenyl]-4-yl)oxy)pentyl)oxy)acetamido)-3,3-dimethylbutanoyl)-4-hydroxy-N-((S)-1-(4-(4-methylthiazol-5-yl)phenyl)ethyl)pyrrolidine-2-carboxamide], “A (A = degradation more than 60%)”; as for `CCN(c1cc(-c2ccc(OCCOCCOCCOCCOCCOCC(=O)N[C@H](C(=O)N3C[C@H](O)C[C@H]3C(=O)NCc3ccc(-c4scnc4C)cc3)C(C)(C)C)cc2)cc(C(=O)NCc2c(C)cc(C)[nH]c2=O)c1C)C1CCOCC1` [Compound 15, (2S,4R)-1-[(2S)-2-{1-[4-(3-{[(4,6-dimethyl-2-oxo-1,2-dihydropyridin-3-yl)methyl]carbamoyl}-5-[ethyl(oxan-4-yl)amino]-4-methylphenyl)phenyl]-1,4,7,10,13,16-hexaoxaoctadecan-18-amido}-3,3-dimethylbutanoyl]-4-hydroxy-N-{[4-(4-methyl-1,3-thiazol-5-yl)phenyl]methyl}pyrrolidine-2-carboxamide], “B (B = degradation between 30% and 60%)”.
For `Cc1cc(C)c(CNC(=O)c2cc(-c3ccc(CN4CCN(CCOCCCCOCC(=O)N[C@H](C(=O)N5C[C@H](O)C[C@H]5C(=O)NCc5ccc(-c6scnc6C)cc5)C(C)(C)C)CC4)cc3)cc3c2ccn3C2CCCC2)c(=O)[nH]1` [Compound 3, 1-cyclopentyl-N-[(4,6-dimethyl-2-oxo-1,2-dihydropyridin-3-yl)methyl]-6-{4-[(4-{2-[4-({[(2S)-1-[(2S,4R)-4-hydroxy-2-({[4-(4-methyl-1,3-thiazol-5-yl)phenyl]methyl}carbamoyl)pyrrolidin-1-yl]-3,3-dimethyl-1-oxobutan-2-yl]carbamoyl}methoxy)butoxy]ethyl}piperazin-1-yl)methyl]phenyl}-1H-indole-4-carboxamide] the value was “B (B = degradation between 30% and 60%)”.
As for `CCN(c1cc(-c2ccc(OCCCOc3cc(-c4scnc4C)ccc3CNC(=O)[C@@H]3C[C@@H](O)CN3C(=O)[C@H](C(C)C)N3Cc4ccccc4C3=O)cc2)cc(C(=O)NCc2c(C)cc(C)[nH]c2=O)c1C)C1CCOCC1` [Compound 90, (2S,4R)-N-(2-(3-((3′-(((4,6-dimethyl-2-oxo-1,2-dihydropyridin-3-yl)methyl)carbamoyl)-5′-(ethyl(tetrahydro-2H-pyran-4-yl)amino)-4′-methyl-[1,1′-biphenyl]-4-yl)oxy)propoxy)-4-(4-methylthiazol-5-yl)benzyl)-4-hydroxy-1-((S)-3-methyl-2-(1-oxoisoindolin-2-yl)butanoyl)pyrrolidine-2-carboxamide], the entry is “B (B = degradation between 30% and 60%)”.
Turning to `CCN(c1cc(-c2ccc(OCCOCCOCCOCCOCCOc3ccc(CCN4CC[C@@H]5CCN(C(=O)[C@@H](NC(=O)[C@H](C)NC)C6CCCCC6)[C@@H]5C4)cc3)cc2)cc(C(=O)NCc2c(C)cc(C)[nH]c2=O)c1C)C1CCOCC1` (racemic) [Compound 29, 5-(4-{[1-(4-{2-[(3aR,7aS)-1-[(2S)-2-cyclohexyl-2-[(2S)-2-(methylamino)propanamido]acetyl]-octahydro-1H-pyrrolo[2,3-c]pyridin-6-yl]ethyl]phenyl)-1,4,7,10,13-pentaoxapentadecan-15-yl]oxy}phenyl)-N-[(4,6-dimethyl-2-oxo-1,2-dihydropyridin-3-yl)methyl]-3-[ethyl(oxan-4-yl)amino]-2-methylbenzamide], the “percent target protein degradation class” value was “B (B = degradation between 30% and 60%)”.
For `CCN(c1cc(-c2ccc(OCCOCCOCCOCCOCCOCCOCCOCCOCCNc3cccc4c3C(=O)N(C3CCC(=O)NC3=O)C4=O)cc2)cc(C(=O)NCc2c(C)cc(C)[nH]c2=O)c1C)C1CCOCC1` (stereo not drawn) [Compound 23, N-[(4,6-dimethyl-2-oxo-1,2-dihydropyridin-3-yl)methyl]-5-[4-({l-[2-(2,6-dioxopiperidin-3-yl)-1,3-dioxo-2,3-dihydro-1H-isoindol-4-yl]-4,7,10,13,16,19,22,25-octaoxa-1-azaheptacosan-27-yl}oxy)phenyl]-3-[ethyl(oxan-4-yl)amino]-2-methylbenzamide] the value was “B (B = degradation between 30% and 60%)”; for `CCN(c1cc(-c2ccc(OCCOCCCCCOc3cc(-c4scnc4C)ccc3CNC(=O)[C@@H]3C[C@@H](O)CN3C(=O)[C@H](C(C)C)N3Cc4ccccc4C3=O)cc2)cc(C(=O)NCc2c(C)cc(C)[nH]c2=O)c1C)C1CCOCC1` [Compound 49, (2S,4R)-N-({2-[(5-{2-[4-(3-{[(4,6-dimethyl-2-oxo-1,2-dihydropyridin-3-yl)methyl]carbamoyl}-5-[ethyl(oxan-4-yl)amino]-4-methylphenyl)phenoxy]ethoxy}pentyl)oxy]-4-(4-methyl-1,3-thiazol-5-yl)phenyl}methyl)-4-hydroxy-1-[(2S)-3-methyl-2-(1-oxo-2,3-dihydro-1H-isoindol-2-yl)butanoyl]pyrrolidine-2-carboxamide], “B (B = degradation between 30% and 60%)”.
For `Cc1cc(C)c(CNC(=O)c2cc(-c3ccc(CN4CCN(CCOCC(=O)N[C@H](C(=O)N5C[C@H](O)C[C@H]5C(=O)NCc5ccc(-c6scnc6C)cc5)C(C)(C)C)CC4)cc3)cc3c2ccn3C2CCCC2)c(=O)[nH]1` [Compound 1, 1-cyclopentyl-N-[(4,6-dimethyl-2-oxo-1,2-dihydropyridin-3-yl)methyl]-6-[4-({4-[2-({[(2S)-1-[(2S,4R)-4-hydroxy-2-({[4-(4-methyl-1,3-thiazol-5-yl)phenyl]methyl}carbamoyl)pyrrolidin-1-yl]-3,3-dimethyl-1-oxobutan-2-yl]carbamoyl}methoxy)ethyl]piperazin-1-yl}methyl)phenyl]-1H-indole-4-carboxamide] the value was “B (B = degradation between 30% and 60%)”; for `CCN(c1cc(-c2ccc(OCCOCCOCCOc3ccc(CCN4CC[C@@H]5CCN(C(=O)[C@@H](NC(=O)[C@H](C)NC)C6CCCCC6)[C@@H]5C4)cc3)cc2)cc(C(=O)NCc2c(C)cc(C)[nH]c2=O)c1C)C1CCOCC1` (racemic) [Compound 26, 5-[4-(2-{2-[2-(4-{2-[(3aR,7aS)-1-[(2S)-2-cyclohexyl-2-[(2S)-2-(methylamino)propanamido]acetyl]-octahydro-1H-pyrrolo[2,3-c]pyridin-6-yl]ethyl}phenoxy)ethoxy]ethoxy}ethoxy)phenyl]-N-[(4,6-dimethyl-2-oxo-1,2-dihydropyridin-3-yl)methyl]-3-[ethyl(oxan-4-yl)amino]-2-methylbenzamide], “B (B = degradation between 30% and 60%)”; for `Cc1cc(C)c(CNC(=O)c2c(C)n(C(C)C3CCN(C(=O)COCCOCCOCCOCCOCCNc4cccc5c4C(=O)N(C4CCC(=O)NC4=O)C5=O)CC3)c3ccccc23)c(=O)[nH]1` (stereo not shown) [Compound 12, N-[(4,6-dimethyl-2-oxo-1,2-dihydropyridin-3-yl)methyl]-1-[1-(1-{1-[2-(2,6-dioxopiperidin-3-yl)-1,3-dioxo-2,3-dihydro-1H-isoindol-4-yl]-4,7,10,13,16-pentaoxa-1-azaoctadecanoyl}piperidin-4-yl)ethyl]-2-methyl-1H-indole-3-carboxamide], “B (B = degradation between 30% and 60%)”.
Turning to `CCN(c1cc(-c2ccc(OCCOCCNc3cccc4c3C(=O)N(C3CCC(=O)NC3=O)C4=O)cc2)cc(C(=O)NCc2c(C)cc(C)[nH]c2=O)c1C)C1CCOCC1` (stereo not shown) [Compound 34, N-[(4,6-dimethyl-2-oxo-1,2-dihydropyridin-3-yl)methyl]-5-{4-[2-(2-{[2-(2,6-dioxopiperidin-3-yl)-1,3-dioxo-2,3-dihydro-1H-isoindol-4-yl]amino}ethoxy)ethoxy]phenyl}-3-[ethyl(oxan-4-yl)amino]-2-methylbenzamide], the “percent target protein degradation class” value was “B (B = degradation between 30% and 60%)”.
